{"source": "patent US9795561B2", "about": "“Combination of umeclidinium, fluticasone propionate and salmeterol xinafoate for use in the treatment of inflammatory or respiratory tract diseases” (Glaxo Group Limited, priority 2012, dated 2017)", "key": {"[1]": {"system": "healthy volunteers and COPD patients", "assay": "Clinical pharmacology studies, single inhaled doses, plethysmography (sGaw, Raw) and spirometry (FEV1)", "assay_type": "in vivo, human", "description": "Several clinical pharmacology studies have been conducted using umeclidinium bromide in both healthy volunteers and COPD patients to investigate the safety, tolerability, pharmacokinetics and pharmacodynamics of this compound. The bronchodilatory effects and duration of action of single inhaled doses of this compound as measured by plethysmography (sGaw, Raw) and spirometry (FEV1) were assessed in some of the above noted studies."}, "[2]": {"system": "muscarinic receptor", "assay": "Muscarinic receptor antagonism, studies in animal models and in humans"}, "[3]": {"system": "subjects with COPD", "assay": "28-day once-daily dry powder inhaler study in subjects with COPD", "assay_type": "in vivo, human", "details": "125, 250 and 500 mcg once-daily, 28 days", "from_the_text": "A further study evaluated the efficacy and safety of three doses of umeclidinium (125 mcg, 250 mcg and 500 mcg as umeclidinium bromide) administered once-daily via a dry powder inhaler over a 28 day period in subjects with COPD."}, "[4]": {"system": "pre-clinical models", "assay": "Duration of action in vivo when administered directly to the lungs in pre-clinical models"}, "[5]": {"system": "subjects with COPD", "assay": "14-day once-daily dose-ranging study in subjects with COPD", "assay_type": "in vivo, human", "from_the_text": "In addition, this study confirmed that umeclidinium bromide has a once-daily profile."}, "[6]": {"target": "human M3 receptor (Homo sapiens, UniProt P20309)", "sequence (P20309 whole entry)": "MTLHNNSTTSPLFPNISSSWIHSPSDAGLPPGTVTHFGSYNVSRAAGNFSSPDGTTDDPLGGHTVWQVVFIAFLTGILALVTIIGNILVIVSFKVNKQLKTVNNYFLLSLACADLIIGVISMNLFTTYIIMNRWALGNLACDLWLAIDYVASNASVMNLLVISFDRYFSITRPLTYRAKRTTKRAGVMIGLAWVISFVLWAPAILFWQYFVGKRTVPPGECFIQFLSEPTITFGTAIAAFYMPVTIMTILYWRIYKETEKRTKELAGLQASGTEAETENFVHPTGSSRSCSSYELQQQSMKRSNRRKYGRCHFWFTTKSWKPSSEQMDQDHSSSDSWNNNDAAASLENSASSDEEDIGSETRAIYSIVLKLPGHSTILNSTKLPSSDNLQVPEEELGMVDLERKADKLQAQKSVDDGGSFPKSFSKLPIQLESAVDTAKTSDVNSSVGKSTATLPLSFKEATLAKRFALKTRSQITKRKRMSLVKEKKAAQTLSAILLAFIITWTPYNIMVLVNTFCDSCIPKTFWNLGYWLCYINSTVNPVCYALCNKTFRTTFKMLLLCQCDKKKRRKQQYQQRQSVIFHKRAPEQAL", "assay": "Reversibility at the human M3 receptor in vitro", "assay_type": "binding"}}, "data": [{"smiles": "OC(c1ccccc1)(c1ccccc1)C12CC[N+](CCOCc3ccccc3)(CC1)CC2.[Br-]", "note": "[umeclidinium bromide, 4-[hydroxy(diphenyl)methyl]-1-{2-[(phenylmethyl)oxy]ethyl}-1-azoniabicyclo[2.2.2]octane bromide]", "values": [{"measurement": "bronchodilatory effect", "setting": "[1]", "value": "clinically relevant bronchodilation"}, {"measurement": "duration of action", "setting": "[1]", "value": 24, "unit": "h"}, {"measurement": "muscarinic receptor antagonist profile", "setting": "[2]", "value": "long acting high-affinity pan-active muscarinic receptor antagonist"}, {"measurement": "bronchodilation", "setting": "[3]", "value": "maintaining significant bronchodilation over twenty four hours"}, {"measurement": "safety", "setting": "[3]", "value": "appears to be safe"}, {"measurement": "duration of action in vivo", "setting": "[4]", "value": "long duration of action"}, {"measurement": "improvement in trough FEV1 versus open label tiotropium (18 mcg once-daily)", "setting": "[5]; all once-daily doses (62.5-1000 mcg), 14 days", "value": "numerically greater improvement"}, {"measurement": "pulmonary function compared to placebo", "setting": "[5]; five once-daily doses (62.5, 125, 250, 500, 1000 mcg) over 14 days", "value": "statistically significant improvements"}, {"measurement": "reversibility at the human M3 receptor", "setting": "[6]", "value": "slow reversibility"}]}]}
